# Test results reported in the supplement of paper PMC10627819.
# Assays:
# S. aureus DSM 20231 = assay: Bliss interaction score (quartile over a dose matrix) (fitness difference); higher = more antagonism (negative = synergy)
# How it was run: (§1)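 Fitness is OD595 at stationary-phase entry relative to the plate's robust no-drug mean, capped at 1. Single-drug fitness was inferred from combinations. The Bliss score is observed minus product-expected fitness, summarised by quartiles over technical, biological and donor/recipient replicates.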
# S. aureus Newman = assay: as above
# How it was run: as §1
# B. subtilis 168 [1] = assay: as above
# How it was run: as §1
# S. pneumoniae D39V [2] = assay: as above
# How it was run: as §1
# B. subtilis 168 [3] = assay: fitness (endpoint OD595 vs no drug) (fraction); higher = more growth
# How it was run: (§2)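 In 384-well plates at 37 °C, cultures began at OD595 0.01 in 30 µl, with 55 µl used for S. pneumoniae. OD595 readings every 30 min for 14 h were corrected by the first reading. Fitness divides the stationary-phase transition optical density by the robust mean of no-drug control wells. The result is capped at 1.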
# S. pneumoniae D39V [4] = assay: as above
# How it was run: as §2
# [5] = first compound 1 µg/mL, partner 0.2 µg/mL, one replicate
# 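Wherever Bliss interaction score (quartile over a dose matrix) is given: first quartile when negative (synergy) and third quartile when positive (antagonism).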
compound,measurement,setting,value
CCCCCCCCCC(=O)N[C@@H](Cc1c[nH]c2ccccc12)C(=O)N[C@H](CC(N)=O)C(=O)N[C@@H](CC(=O)O)C(=O)N[C@@H]1C(=O)NCC(=O)N[C@@H](CCCN)C(=O)N[C@@H](CC(=O)O)C(=O)N[C@H](C)C(=O)N[C@@H](CC(=O)O)C(=O)NCC(=O)N[C@H](CO)C(=O)N[C@@H]([C@H](C)CC(=O)O)C(=O)N[C@@H](CC(=O)c2ccccc2N)C(=O)O[C@@H]1C [Daptomycin] + CO[C@@H]1[C@@H](OC(N)=O)[C@@H](O)[C@H](Oc2ccc3c(O)c(NC(=O)c4ccc(O)c(CC=C(C)C)c4)c(=O)oc3c2C)OC1(C)C [Novobiocin],Bliss interaction score,S. aureus DSM 20231,0.0439
same,Bliss interaction score,S. aureus Newman,0.0984
same,Bliss interaction score,B. subtilis 168 [1],0.0788
same,Bliss interaction score,S. pneumoniae D39V [2],0.0661
same,fitness,"B. subtilis 168 [3]; first compound 0.125 µg/mL, partner 0.0125 µg/mL",0.94
same,fitness,"B. subtilis 168 [3]; first compound 0.125 µg/mL, partner 0.025 µg/mL",0.916
same,fitness,"B. subtilis 168 [3]; first compound 0.125 µg/mL, partner 0.05 µg/mL",0.968
same,fitness,"B. subtilis 168 [3]; first compound 0.125 µg/mL, partner 0.125 µg/mL, one replicate",0.958
same,fitness,"B. subtilis 168 [3]; first compound 0.125 µg/mL, partner 0.25 µg/mL, one replicate",0.954
same,fitness,"B. subtilis 168 [3]; first compound 0.125 µg/mL, partner 0.5 µg/mL, one replicate",0.649
same,fitness,"B. subtilis 168 [3]; first compound 0.25 µg/mL, partner 0.0125 µg/mL",0.981
same,fitness,"B. subtilis 168 [3]; first compound 0.25 µg/mL, partner 0.025 µg/mL",0.94
same,fitness,"B. subtilis 168 [3]; first compound 0.25 µg/mL, partner 0.05 µg/mL",0.984
same,fitness,"B. subtilis 168 [3]; first compound 0.25 µg/mL, partner 0.1 µg/mL, one replicate",0.96
same,fitness,"B. subtilis 168 [3]; first compound 0.25 µg/mL, partner 0.125 µg/mL, one replicate",≥ 1
same,fitness,"B. subtilis 168 [3]; first compound 0.25 µg/mL, partner 0.2 µg/mL, one replicate",0.957
same,fitness,"B. subtilis 168 [3]; first compound 0.25 µg/mL, partner 0.25 µg/mL, one replicate",≥ 1
same,fitness,"B. subtilis 168 [3]; first compound 0.25 µg/mL, partner 0.5 µg/mL, one replicate",0.579
same,fitness,"B. subtilis 168 [3]; first compound 0.5 µg/mL, partner 0.0125 µg/mL",0.899
same,fitness,"B. subtilis 168 [3]; first compound 0.5 µg/mL, partner 0.025 µg/mL",0.867
same,fitness,"B. subtilis 168 [3]; first compound 0.5 µg/mL, partner 0.05 µg/mL",0.902
same,fitness,"B. subtilis 168 [3]; first compound 0.5 µg/mL, partner 0.1 µg/mL, one replicate",0.94
same,fitness,"B. subtilis 168 [3]; first compound 0.5 µg/mL, partner 0.125 µg/mL, one replicate",≥ 1
same,fitness,"B. subtilis 168 [3]; first compound 0.5 µg/mL, partner 0.2 µg/mL, one replicate",0.936
same,fitness,"B. subtilis 168 [3]; first compound 0.5 µg/mL, partner 0.25 µg/mL, one replicate",0.965
same,fitness,"B. subtilis 168 [3]; first compound 0.5 µg/mL, partner 0.5 µg/mL, one replicate",0.288
same,fitness,"B. subtilis 168 [3]; first compound 1 µg/mL, partner 0.05 µg/mL, one replicate",0.738
same,fitness,"B. subtilis 168 [3]; first compound 1 µg/mL, partner 0.1 µg/mL, one replicate",0.791
same,fitness,B. subtilis 168 [3]; [5],0.759
CCCCCCCCCC(=O)N[C@@H](Cc1c[nH]c2ccccc12)C(=O)N[C@H](CC(N)=O)C(=O)N[C@@H](CC(=O)O)C(=O)N[C@@H]1C(=O)NCC(=O)N[C@@H](CCCN)C(=O)N[C@@H](CC(=O)O)C(=O)N[C@H](C)C(=O)N[C@@H](CC(=O)O)C(=O)NCC(=O)N[C@H](CO)C(=O)N[C@@H]([C@H](C)CC(=O)O)C(=O)N[C@@H](CC(=O)c2ccccc2N)C(=O)O[C@@H]1C [Daptomycin] + CO[C@H]1/C=C/O[C@@]2(C)Oc3c(C)c(O)c4c(O)c(c(/C=N/N5CCN(C)CC5)c(O)c4c3C2=O)NC(=O)/C(C)=C\C=C\[C@H](C)[C@H](O)[C@@H](C)[C@@H](O)[C@@H](C)[C@H](OC(C)=O)[C@@H]1C [Rifampicin],Bliss interaction score,S. aureus DSM 20231,-0.0427
same,Bliss interaction score,S. aureus Newman,0.0195
same,Bliss interaction score,B. subtilis 168 [1],-0.0667
same,Bliss interaction score,S. pneumoniae D39V [2],0.104
same,fitness,"S. pneumoniae D39V [4]; first compound 1 µg/mL, partner 0.025 µg/mL",0.978
same,fitness,"S. pneumoniae D39V [4]; first compound 1 µg/mL, partner 0.05 µg/mL",0.823
same,fitness,"S. pneumoniae D39V [4]; first compound 1 µg/mL, partner 0.1 µg/mL",0.262
same,fitness,S. pneumoniae D39V [4]; [5],0
same,fitness,"S. pneumoniae D39V [4]; first compound 2 µg/mL, partner 0.025 µg/mL",≥ 1
same,fitness,"S. pneumoniae D39V [4]; first compound 2 µg/mL, partner 0.05 µg/mL",0.864
same,fitness,"S. pneumoniae D39V [4]; first compound 2 µg/mL, partner 0.1 µg/mL",0.271
same,fitness,"S. pneumoniae D39V [4]; first compound 2 µg/mL, partner 0.2 µg/mL, one replicate",0
same,fitness,"S. pneumoniae D39V [4]; first compound 4 µg/mL, partner 0.025 µg/mL",≥ 1
same,fitness,"S. pneumoniae D39V [4]; first compound 4 µg/mL, partner 0.05 µg/mL",0.926
same,fitness,"S. pneumoniae D39V [4]; first compound 4 µg/mL, partner 0.2 µg/mL, one replicate",0
CCCCCCCCCC(=O)N[C@@H](Cc1c[nH]c2ccccc12)C(=O)N[C@H](CC(N)=O)C(=O)N[C@@H](CC(=O)O)C(=O)N[C@@H]1C(=O)NCC(=O)N[C@@H](CCCN)C(=O)N[C@@H](CC(=O)O)C(=O)N[C@H](C)C(=O)N[C@@H](CC(=O)O)C(=O)NCC(=O)N[C@H](CO)C(=O)N[C@@H]([C@H](C)CC(=O)O)C(=O)N[C@@H](CC(=O)c2ccccc2N)C(=O)O[C@@H]1C [Daptomycin] + C[C@@H](O)[C@H]1C(=O)N2C(C(=O)O)=C(SCCNC=N)C[C@H]12 [Imipenem],Bliss interaction score,S. aureus DSM 20231,0.0417
same,Bliss interaction score,S. aureus Newman,0.0265
same,Bliss interaction score,B. subtilis 168 [1],-0.0985
same,Bliss interaction score,S. pneumoniae D39V [2],0.0763
same,fitness,"S. pneumoniae D39V [4]; first compound 1 µg/mL, partner 0.005 µg/mL",0.962
same,fitness,"S. pneumoniae D39V [4]; first compound 1 µg/mL, partner 0.0065 µg/mL",0.886
same,fitness,"S. pneumoniae D39V [4]; first compound 1 µg/mL, partner 0.01 µg/mL",0.986
same,fitness,"S. pneumoniae D39V [4]; first compound 1 µg/mL, partner 0.013 µg/mL",0.808
same,fitness,"S. pneumoniae D39V [4]; first compound 1 µg/mL, partner 0.02 µg/mL",0.935
same,fitness,"S. pneumoniae D39V [4]; first compound 1 µg/mL, partner 0.026 µg/mL",0.716
same,fitness,"S. pneumoniae D39V [4]; first compound 2 µg/mL, partner 0.005 µg/mL",0.979
same,fitness,"S. pneumoniae D39V [4]; first compound 2 µg/mL, partner 0.0065 µg/mL",0.895
same,fitness,"S. pneumoniae D39V [4]; first compound 2 µg/mL, partner 0.01 µg/mL",0.931
same,fitness,"S. pneumoniae D39V [4]; first compound 2 µg/mL, partner 0.013 µg/mL",0.837
same,fitness,"S. pneumoniae D39V [4]; first compound 2 µg/mL, partner 0.02 µg/mL",0.989
same,fitness,"S. pneumoniae D39V [4]; first compound 2 µg/mL, partner 0.026 µg/mL",0.843
same,fitness,"S. pneumoniae D39V [4]; first compound 4 µg/mL, partner 0.005 µg/mL",0.902
same,fitness,"S. pneumoniae D39V [4]; first compound 4 µg/mL, partner 0.0065 µg/mL",0.93
same,fitness,"S. pneumoniae D39V [4]; first compound 4 µg/mL, partner 0.01 µg/mL",0.884
same,fitness,"S. pneumoniae D39V [4]; first compound 4 µg/mL, partner 0.013 µg/mL",0.947
same,fitness,"S. pneumoniae D39V [4]; first compound 4 µg/mL, partner 0.02 µg/mL",0.897
same,fitness,"S. pneumoniae D39V [4]; first compound 4 µg/mL, partner 0.026 µg/mL",0.887
CCCCCCCCCC(=O)N[C@@H](Cc1c[nH]c2ccccc12)C(=O)N[C@H](CC(N)=O)C(=O)N[C@@H](CC(=O)O)C(=O)N[C@@H]1C(=O)NCC(=O)N[C@@H](CCCN)C(=O)N[C@@H](CC(=O)O)C(=O)N[C@H](C)C(=O)N[C@@H](CC(=O)O)C(=O)NCC(=O)N[C@H](CO)C(=O)N[C@@H]([C@H](C)CC(=O)O)C(=O)N[C@@H](CC(=O)c2ccccc2N)C(=O)O[C@@H]1C [Daptomycin] + Clc1ccc(COC(Cn2ccnc2)c2ccc(Cl)cc2Cl)c(Cl)c1 [Miconazole],Bliss interaction score,S. aureus DSM 20231,-0.0305
same,Bliss interaction score,S. aureus Newman,-0.0424
same,Bliss interaction score,B. subtilis 168 [1],0.0988
same,Bliss interaction score,S. pneumoniae D39V [2],0.0797
same,fitness,"S. pneumoniae D39V [4]; first compound 1 µg/mL, partner 1.073 µg/mL",0.962
same,fitness,"S. pneumoniae D39V [4]; first compound 1 µg/mL, partner 1.25 µg/mL",0.922
same,fitness,"S. pneumoniae D39V [4]; first compound 1 µg/mL, partner 2.145 µg/mL",0.967
same,fitness,"S. pneumoniae D39V [4]; first compound 1 µg/mL, partner 2.5 µg/mL",0.913
same,fitness,"S. pneumoniae D39V [4]; first compound 1 µg/mL, partner 4.29 µg/mL",0.841
same,fitness,"S. pneumoniae D39V [4]; first compound 1 µg/mL, partner 5 µg/mL",0.898
same,fitness,"S. pneumoniae D39V [4]; first compound 2 µg/mL, partner 1.073 µg/mL",0.984
same,fitness,"S. pneumoniae D39V [4]; first compound 2 µg/mL, partner 1.25 µg/mL",0.888
same,fitness,"S. pneumoniae D39V [4]; first compound 2 µg/mL, partner 2.145 µg/mL",0.981
same,fitness,"S. pneumoniae D39V [4]; first compound 2 µg/mL, partner 2.5 µg/mL",0.896
same,fitness,"S. pneumoniae D39V [4]; first compound 2 µg/mL, partner 4.29 µg/mL",0.881
same,fitness,"S. pneumoniae D39V [4]; first compound 2 µg/mL, partner 5 µg/mL",0.86
same,fitness,"S. pneumoniae D39V [4]; first compound 4 µg/mL, partner 1.073 µg/mL",≥ 1
same,fitness,"S. pneumoniae D39V [4]; first compound 4 µg/mL, partner 1.25 µg/mL",0.847
same,fitness,"S. pneumoniae D39V [4]; first compound 4 µg/mL, partner 2.145 µg/mL",≥ 1
same,fitness,"S. pneumoniae D39V [4]; first compound 4 µg/mL, partner 2.5 µg/mL",0.813
same,fitness,"S. pneumoniae D39V [4]; first compound 4 µg/mL, partner 4.29 µg/mL",0.882
same,fitness,"S. pneumoniae D39V [4]; first compound 4 µg/mL, partner 5 µg/mL",0.836
